The values below come from ChEMBL document CHEMBL1146927, “Semi-synthetic preparation of the rare, cytotoxic, deep-sea sourced sponge metabolites discorhabdins P and U” (Bioorg Med Chem Lett, 2006).

One test deals with Bacillus subtilis. Description: Zone of Bacillus subtilis inhibition at 30 ug. The class given is functional.
For the next test, the system named is Escherichia coli. Nature of the test: Zone of Escherichia coli inhibition at 30 ug. The class given is functional.
Another test relates to P388. Description: Antiproliferative activity against murine P388D1 cell line. Particulars: Mus musculus. The class given is functional, cell-based.

≈ marks a conversion by molar mass, not a printed value.

As a reminder, the IC50 is the concentration that gives 50% inhibition.

With `CSC1=CC(=O)C(Br)=C[C@]12C=CNC1=C2C2=NCCc3cn(C)c(c32)C1=O` [DISCORHABDIN U], the inhibition zone (IZ) in the test with Bacillus subtilis is 3 mm; in the test with Escherichia coli it was 0 mm. In the test on P388, this compound yielded an IC50 of 0.089 µg/mL (≈ 0.201 µM).

As to `CSC1=CC(=O)C(Br)=C[C@]12C=CNC1=C2C2=NCCc3c[nH]c(c32)C1=O`, the inhibition zone (IZ) came out at 3 mm with Bacillus subtilis and 0 mm in the test on Escherichia coli. The compound also had an IC50 with P388 of 0.081 µg/mL (≈ 0.189 µM).

For `O=C1C=C(SC(=O)c2ccccc2)[C@@]2(C=CNC3=C2C2=NCCc4cn(C(=O)c5ccccc5)c(c42)C3=O)C=C1Br`, the inhibition zone (IZ) in the test with Bacillus subtilis and in the test with Escherichia coli was 0 mm each time. The IC50 with P388 came to 0.918 µg/mL (≈ 1.47 µM).

As for `O=C1C=C2S[C@H]3C[C@]2(C=C1Br)C1=C(N3)C(=O)c2[nH]cc3c2C1=NCC3` [(+)-DISCORHABDIN B], the inhibition zone (IZ) in the test on Bacillus subtilis was 6 mm; with Escherichia coli, 1 mm. The compound also displayed an IC50 in the test with P388 of 0.044 µg/mL (≈ 0.106 µM).

Consider `Cn1cc2c3c1C(=O)C1=C(C3=NCC2)C2(C=C(Br)C(=O)C(Br)=C2)CCN1` [DISCORHABDIN], for which the inhibition zone (IZ) is 8 mm in the test on Bacillus subtilis and 0 mm with Escherichia coli. Moreover, half-maximal inhibition with P388 (IC50) was put at 0.182 µg/mL (≈ 0.381 µM).

With `O=C1C(Br)=CC2(C=C1Br)CCNC1=C2C2=NCCc3c[nH]c(c32)C1=O` [DISCORHABDIN C], the inhibition zone (IZ) was 8 mm in the test on Bacillus subtilis and 1 mm in the test with Escherichia coli. The same compound yielded an IC50 in the test on P388 of 0.062 µg/mL (≈ 0.134 µM).
